# Results: the kinase profiling compilation of Christmann-Franck et al. (2016)
# Key:
# Assay in all cases: radiometric filter-binding kinase assay, Kinase HotSpot
# Settings in all cases: compound 0.5 µM; ATP 10 µM
# ITK (human) = ITK (human) (UniProt Q08881)
# PRKCZ (human) = PRKCZ (human) (UniProt Q05513)
# DMPK (human) = DMPK (human) (UniProt Q09013)
# STK4 (human) = STK4 (human) (UniProt Q13043)
# CAMK2B (human) = CAMK2B (human) (UniProt Q13554)
# PDPK1 (human) = PDPK1 (human) (UniProt O15530)
# RPS6KA4 KD2 (human) = RPS6KA4 KD2 (human) (UniProt O75676)
# KDR (human) = KDR (human) (UniProt P35968)
# TXK (human) = TXK (human) (UniProt P42681)
# RPS6KA2 KD1 KD2 (human) = RPS6KA2 KD1 KD2 (human) (UniProt Q15349)
# STK33 (human) = STK33 (human) (UniProt Q9BYT3)
# MAPK1 (human) = MAPK1 (human) (UniProt P28482)
# MAP3K8 (human) = MAP3K8 (human) (UniProt P41279)
# GRK5 (human) = GRK5 (human) (UniProt P34947)
# MUSK (human) = MUSK (human) (UniProt O15146)
# JAK2 JH1 JH2 (human) = JAK2 JH1 JH2 (human) (UniProt O60674)
# CAMK2A (human) = CAMK2A (human) (UniProt Q9UQM7)
# OXSR1 (human) = OXSR1 (human) (UniProt O95747)
# CLK4 (human) = CLK4 (human) (UniProt Q9HAZ1)
# DYRK1B (human) = DYRK1B (human) (UniProt Q9Y463)
# PIM1 (human) = PIM1 (human) (UniProt P11309)
# PLK3 (human) = PLK3 (human) (UniProt Q9H4B4)
# RPS6KA1 KD1 KD2 (human) = RPS6KA1 KD1 KD2 (human) (UniProt Q15418)
# CSNK1E (human) = CSNK1E (human) (UniProt P49674)
# PAK6 (human) = PAK6 (human) (UniProt Q9NQU5)
# NUAK1 (human) = NUAK1 (human) (UniProt O60285)
# ERBB2 (human) = ERBB2 (human) (UniProt P04626)
# BRSK1 (human) = BRSK1 (human) (UniProt Q8TDC3)
# TSSK1B (human) = TSSK1B (human) (UniProt Q9BXA7)
# SYK (human) = SYK (human) (UniProt P43405)
# CDK3 CCNE1 (human) = CDK3 CCNE1 (human) (UniProt Q00526+P24864)
# NEK2 (human) = NEK2 (human) (UniProt P51955)
# PRKCB2 (human) = PRKCB2 (human) (UniProt P05771)
# SGK2 (human) = SGK2 (human) (UniProt Q9HBY8)
# RPS6KB1 (human) = RPS6KB1 (human) (UniProt P23443)
# FLT1 (human) = FLT1 (human) (UniProt P17948)
# PTK6 (human) = PTK6 (human) (UniProt Q13882)
# RAF1 (human) = RAF1 (human) (UniProt P04049)
# CSNK1A1 (human) = CSNK1A1 (human) (UniProt P48729)
# MAP4K5 (human) = MAP4K5 (human) (UniProt Q9Y4K4)
# MST4 (human) = MST4 (human) (UniProt Q9P289)
# TAOK3 (human) = TAOK3 (human) (UniProt Q9H2K8)
# Chain of KDR (human) (P35968 whole entry, looked up): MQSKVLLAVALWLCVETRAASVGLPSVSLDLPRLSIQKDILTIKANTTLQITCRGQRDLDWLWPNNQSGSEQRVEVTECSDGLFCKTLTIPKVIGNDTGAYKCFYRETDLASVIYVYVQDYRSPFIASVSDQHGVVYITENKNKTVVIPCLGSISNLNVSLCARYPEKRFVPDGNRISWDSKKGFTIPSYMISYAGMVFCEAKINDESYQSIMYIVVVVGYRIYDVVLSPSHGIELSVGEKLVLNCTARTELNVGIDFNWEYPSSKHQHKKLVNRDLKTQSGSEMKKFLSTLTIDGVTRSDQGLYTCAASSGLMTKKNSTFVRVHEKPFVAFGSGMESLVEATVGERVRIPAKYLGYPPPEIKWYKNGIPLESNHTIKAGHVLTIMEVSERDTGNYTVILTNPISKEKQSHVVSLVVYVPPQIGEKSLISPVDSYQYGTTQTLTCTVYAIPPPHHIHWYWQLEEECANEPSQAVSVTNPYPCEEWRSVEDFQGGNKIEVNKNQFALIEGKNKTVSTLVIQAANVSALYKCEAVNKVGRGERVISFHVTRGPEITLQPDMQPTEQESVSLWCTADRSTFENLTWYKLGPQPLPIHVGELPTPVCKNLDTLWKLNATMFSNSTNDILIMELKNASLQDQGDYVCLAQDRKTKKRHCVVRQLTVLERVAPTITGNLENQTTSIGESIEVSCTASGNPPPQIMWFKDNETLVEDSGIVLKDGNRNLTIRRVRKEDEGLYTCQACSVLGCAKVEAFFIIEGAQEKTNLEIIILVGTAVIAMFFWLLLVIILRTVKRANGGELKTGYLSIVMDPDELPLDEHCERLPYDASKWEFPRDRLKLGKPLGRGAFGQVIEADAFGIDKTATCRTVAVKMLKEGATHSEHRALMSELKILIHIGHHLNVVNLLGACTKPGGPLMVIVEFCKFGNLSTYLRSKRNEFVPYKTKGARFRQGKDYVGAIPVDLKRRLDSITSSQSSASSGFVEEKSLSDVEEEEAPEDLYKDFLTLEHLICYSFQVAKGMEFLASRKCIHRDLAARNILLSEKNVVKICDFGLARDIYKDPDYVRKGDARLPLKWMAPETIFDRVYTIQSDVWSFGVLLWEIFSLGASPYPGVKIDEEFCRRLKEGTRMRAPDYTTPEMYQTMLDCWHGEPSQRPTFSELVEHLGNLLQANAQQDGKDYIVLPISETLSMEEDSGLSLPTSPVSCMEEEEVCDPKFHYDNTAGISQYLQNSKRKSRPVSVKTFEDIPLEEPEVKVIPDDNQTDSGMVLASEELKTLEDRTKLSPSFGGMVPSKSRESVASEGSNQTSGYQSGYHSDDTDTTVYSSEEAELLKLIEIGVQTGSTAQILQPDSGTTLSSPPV
# Chain of ITK (human) (Q08881 whole entry, looked up): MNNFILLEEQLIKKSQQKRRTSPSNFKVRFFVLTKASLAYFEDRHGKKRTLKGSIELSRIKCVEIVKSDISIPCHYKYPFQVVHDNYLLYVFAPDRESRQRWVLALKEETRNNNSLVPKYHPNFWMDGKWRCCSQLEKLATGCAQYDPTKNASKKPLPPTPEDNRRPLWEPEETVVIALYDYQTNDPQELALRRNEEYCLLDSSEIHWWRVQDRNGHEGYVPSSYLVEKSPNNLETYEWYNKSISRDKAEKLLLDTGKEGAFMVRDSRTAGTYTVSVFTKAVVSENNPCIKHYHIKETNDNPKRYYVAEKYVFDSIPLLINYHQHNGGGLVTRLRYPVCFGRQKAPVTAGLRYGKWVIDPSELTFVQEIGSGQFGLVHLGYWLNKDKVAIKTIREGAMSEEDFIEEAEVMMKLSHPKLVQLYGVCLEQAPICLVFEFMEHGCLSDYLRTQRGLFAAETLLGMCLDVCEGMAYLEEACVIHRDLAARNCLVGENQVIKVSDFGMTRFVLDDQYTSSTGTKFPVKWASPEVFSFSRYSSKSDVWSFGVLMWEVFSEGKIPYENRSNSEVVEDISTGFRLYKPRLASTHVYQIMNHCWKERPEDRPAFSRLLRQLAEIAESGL
# Chain of TXK (human) (P42681 whole entry, looked up): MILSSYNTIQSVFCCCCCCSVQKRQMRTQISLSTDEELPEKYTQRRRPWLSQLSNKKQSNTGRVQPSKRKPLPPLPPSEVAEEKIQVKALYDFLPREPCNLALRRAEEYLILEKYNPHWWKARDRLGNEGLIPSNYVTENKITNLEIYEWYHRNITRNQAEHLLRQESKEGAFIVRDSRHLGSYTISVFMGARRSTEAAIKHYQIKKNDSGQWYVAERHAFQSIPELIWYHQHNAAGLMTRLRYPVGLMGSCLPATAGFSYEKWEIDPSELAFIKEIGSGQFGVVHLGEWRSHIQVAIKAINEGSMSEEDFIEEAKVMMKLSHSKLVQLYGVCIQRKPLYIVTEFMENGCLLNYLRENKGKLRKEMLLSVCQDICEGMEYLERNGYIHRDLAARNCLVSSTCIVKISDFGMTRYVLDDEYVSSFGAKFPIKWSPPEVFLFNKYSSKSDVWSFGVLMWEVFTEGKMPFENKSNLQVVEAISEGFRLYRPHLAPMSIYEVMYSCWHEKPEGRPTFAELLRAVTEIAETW
# Chain of TSSK1B (human) (Q9BXA7 whole entry, looked up): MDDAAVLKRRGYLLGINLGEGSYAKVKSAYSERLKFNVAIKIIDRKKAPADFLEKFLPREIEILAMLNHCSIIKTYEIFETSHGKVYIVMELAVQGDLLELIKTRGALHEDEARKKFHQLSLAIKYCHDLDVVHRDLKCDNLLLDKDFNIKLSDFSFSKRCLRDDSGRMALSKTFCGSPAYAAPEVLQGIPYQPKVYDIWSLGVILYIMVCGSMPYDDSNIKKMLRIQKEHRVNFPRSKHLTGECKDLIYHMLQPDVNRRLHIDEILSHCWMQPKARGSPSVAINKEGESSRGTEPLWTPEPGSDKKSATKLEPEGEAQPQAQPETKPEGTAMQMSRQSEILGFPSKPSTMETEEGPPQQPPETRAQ
# Chain of RAF1 (human) (P04049 whole entry, looked up): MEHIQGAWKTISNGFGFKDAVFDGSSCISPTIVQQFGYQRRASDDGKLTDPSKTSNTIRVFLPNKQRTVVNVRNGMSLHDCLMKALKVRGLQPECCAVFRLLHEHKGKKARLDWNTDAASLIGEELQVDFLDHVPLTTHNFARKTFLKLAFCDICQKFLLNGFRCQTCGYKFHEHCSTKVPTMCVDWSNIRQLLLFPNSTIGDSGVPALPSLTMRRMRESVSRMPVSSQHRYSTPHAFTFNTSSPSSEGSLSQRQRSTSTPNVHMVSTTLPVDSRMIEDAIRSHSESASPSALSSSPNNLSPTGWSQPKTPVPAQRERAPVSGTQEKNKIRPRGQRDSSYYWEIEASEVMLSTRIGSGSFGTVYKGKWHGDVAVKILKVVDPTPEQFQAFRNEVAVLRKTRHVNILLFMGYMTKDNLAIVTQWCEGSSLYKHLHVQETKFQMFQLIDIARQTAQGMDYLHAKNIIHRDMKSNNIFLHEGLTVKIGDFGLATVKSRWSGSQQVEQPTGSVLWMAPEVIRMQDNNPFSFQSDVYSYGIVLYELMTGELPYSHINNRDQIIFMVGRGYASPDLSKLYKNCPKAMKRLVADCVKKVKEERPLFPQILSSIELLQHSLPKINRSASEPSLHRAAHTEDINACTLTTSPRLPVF
# Chain of PLK3 (human) (Q9H4B4 whole entry, looked up): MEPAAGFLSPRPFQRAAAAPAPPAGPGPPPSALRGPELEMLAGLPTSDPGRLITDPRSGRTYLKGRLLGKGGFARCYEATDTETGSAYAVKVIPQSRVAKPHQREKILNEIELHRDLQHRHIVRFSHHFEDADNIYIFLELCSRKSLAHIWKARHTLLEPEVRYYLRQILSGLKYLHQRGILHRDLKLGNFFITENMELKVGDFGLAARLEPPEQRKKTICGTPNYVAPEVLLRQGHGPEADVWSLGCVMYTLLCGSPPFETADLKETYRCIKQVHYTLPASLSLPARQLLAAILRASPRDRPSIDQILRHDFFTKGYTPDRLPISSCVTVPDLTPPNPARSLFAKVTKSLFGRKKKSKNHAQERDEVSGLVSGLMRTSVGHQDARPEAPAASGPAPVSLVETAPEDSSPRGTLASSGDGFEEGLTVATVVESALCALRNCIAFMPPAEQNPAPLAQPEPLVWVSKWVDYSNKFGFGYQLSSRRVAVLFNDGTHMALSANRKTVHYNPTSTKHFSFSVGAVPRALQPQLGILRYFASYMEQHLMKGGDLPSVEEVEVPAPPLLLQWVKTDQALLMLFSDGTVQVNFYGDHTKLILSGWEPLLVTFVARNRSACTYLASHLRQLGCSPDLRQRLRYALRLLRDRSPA
# Chain of CDK3 CCNE1 (human) (P24864 whole entry, looked up): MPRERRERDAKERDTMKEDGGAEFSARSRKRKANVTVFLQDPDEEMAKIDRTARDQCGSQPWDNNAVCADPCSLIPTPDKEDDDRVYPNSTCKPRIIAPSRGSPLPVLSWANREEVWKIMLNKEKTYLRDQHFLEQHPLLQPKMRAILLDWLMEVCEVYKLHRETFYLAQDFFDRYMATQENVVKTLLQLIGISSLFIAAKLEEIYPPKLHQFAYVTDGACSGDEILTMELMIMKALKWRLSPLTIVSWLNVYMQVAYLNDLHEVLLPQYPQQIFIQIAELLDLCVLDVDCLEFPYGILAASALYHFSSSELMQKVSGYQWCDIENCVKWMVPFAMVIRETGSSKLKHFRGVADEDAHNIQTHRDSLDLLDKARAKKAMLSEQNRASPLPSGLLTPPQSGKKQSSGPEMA
# Chain of CDK3 CCNE1 (human) (Q00526 whole entry, looked up): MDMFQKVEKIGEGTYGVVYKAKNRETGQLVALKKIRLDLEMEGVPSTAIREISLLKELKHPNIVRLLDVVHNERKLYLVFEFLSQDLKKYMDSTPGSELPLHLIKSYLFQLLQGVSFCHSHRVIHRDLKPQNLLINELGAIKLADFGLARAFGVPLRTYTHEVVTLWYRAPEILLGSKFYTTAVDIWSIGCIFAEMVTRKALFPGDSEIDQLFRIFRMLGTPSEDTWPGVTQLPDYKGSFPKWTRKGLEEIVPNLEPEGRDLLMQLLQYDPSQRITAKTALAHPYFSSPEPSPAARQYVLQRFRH
smiles,measurement,setting,value
COc1ccc(S(=O)(=O)N(CCO)c2ccccc2CN(C)C/C=C/c2ccc(Cl)cc2)cc1,residual activity,ITK (human),97.1%
same,residual activity,PRKCZ (human),100%
same,residual activity,DMPK (human),105%
same,residual activity,STK4 (human),94.2%
same,residual activity,CAMK2B (human),100%
same,residual activity,PDPK1 (human),93.7%
same,residual activity,RPS6KA4 KD2 (human),107%
same,residual activity,KDR (human),101%
same,residual activity,TXK (human),95.6%
same,residual activity,RPS6KA2 KD1 KD2 (human),99.2%
same,residual activity,STK33 (human),97.3%
same,residual activity,MAPK1 (human),97%
same,residual activity,MAP3K8 (human),96.3%
same,residual activity,GRK5 (human),94.1%
same,residual activity,MUSK (human),94.7%
same,residual activity,JAK2 JH1 JH2 (human),98.4%
same,residual activity,CAMK2A (human),107%
same,residual activity,OXSR1 (human),106%
same,residual activity,CLK4 (human),96%
same,residual activity,DYRK1B (human),104%
same,residual activity,PIM1 (human),104%
same,residual activity,PLK3 (human),99.4%
same,residual activity,RPS6KA1 KD1 KD2 (human),108%
same,residual activity,CSNK1E (human),105%
same,residual activity,PAK6 (human),101%
same,residual activity,NUAK1 (human),96.5%
same,residual activity,ERBB2 (human),97.8%
same,residual activity,BRSK1 (human),98.4%
same,residual activity,TSSK1B (human),103%
same,residual activity,SYK (human),101%
same,residual activity,CDK3 CCNE1 (human),103%
same,residual activity,NEK2 (human),86.6%
same,residual activity,PRKCB2 (human),102%
same,residual activity,SGK2 (human),99.8%
same,residual activity,RPS6KB1 (human),103%
same,residual activity,FLT1 (human),94.7%
same,residual activity,PTK6 (human),89.3%
same,residual activity,RAF1 (human),93.7%
same,residual activity,CSNK1A1 (human),99.3%
same,residual activity,MAP4K5 (human),99.7%
same,residual activity,MST4 (human),105%
same,residual activity,TAOK3 (human),91.2%
O=C1c2ccccc2-c2nc3nnnn3nc21,residual activity,ITK (human),71.5%
same,residual activity,PRKCZ (human),99.1%
same,residual activity,DMPK (human),84.8%
same,residual activity,STK4 (human),87.8%
same,residual activity,CAMK2B (human),85.1%
same,residual activity,PDPK1 (human),79%
same,residual activity,RPS6KA4 KD2 (human),72.2%
same,residual activity,KDR (human),1.95%
same,residual activity,TXK (human),90.8%
same,residual activity,RPS6KA2 KD1 KD2 (human),89.1%
same,residual activity,STK33 (human),107%
same,residual activity,MAPK1 (human),87.5%
same,residual activity,MAP3K8 (human),75.9%
same,residual activity,GRK5 (human),74.3%
same,residual activity,MUSK (human),107%
same,residual activity,JAK2 JH1 JH2 (human),82.6%
same,residual activity,CAMK2A (human),84.7%
same,residual activity,OXSR1 (human),83%
same,residual activity,CLK4 (human),78.3%
same,residual activity,DYRK1B (human),81%
same,residual activity,PIM1 (human),94.1%
same,residual activity,PLK3 (human),28.5%
same,residual activity,RPS6KA1 KD1 KD2 (human),53.1%
same,residual activity,CSNK1E (human),80.6%
same,residual activity,PAK6 (human),108%
same,residual activity,NUAK1 (human),89.8%
same,residual activity,ERBB2 (human),22.2%
same,residual activity,BRSK1 (human),84.8%
same,residual activity,TSSK1B (human),88.7%
same,residual activity,SYK (human),94.8%
same,residual activity,CDK3 CCNE1 (human),73.4%
same,residual activity,NEK2 (human),77.7%
same,residual activity,PRKCB2 (human),29.3%
same,residual activity,SGK2 (human),75.1%
same,residual activity,RPS6KB1 (human),85.8%
same,residual activity,FLT1 (human),3.06%
same,residual activity,PTK6 (human),111%
same,residual activity,RAF1 (human),76.1%
same,residual activity,CSNK1A1 (human),85.8%
same,residual activity,MAP4K5 (human),78.7%
same,residual activity,MST4 (human),91.8%
same,residual activity,TAOK3 (human),90.8%
NC(=O)c1cccc(-c2cc(Nc3ccc(OC(F)(F)F)cc3)ncn2)c1,residual activity,ITK (human),95.3%
same,residual activity,PRKCZ (human),100%
same,residual activity,DMPK (human),96.1%
same,residual activity,STK4 (human),88.7%
same,residual activity,CAMK2B (human),100%
same,residual activity,PDPK1 (human),98.3%
same,residual activity,RPS6KA4 KD2 (human),85.8%
same,residual activity,KDR (human),99.8%
same,residual activity,TXK (human),111%
same,residual activity,RPS6KA2 KD1 KD2 (human),96.2%
same,residual activity,STK33 (human),92.1%
same,residual activity,MAPK1 (human),96.6%
same,residual activity,MAP3K8 (human),96.8%
same,residual activity,GRK5 (human),109%
same,residual activity,MUSK (human),95.9%
same,residual activity,JAK2 JH1 JH2 (human),104%
same,residual activity,CAMK2A (human),102%
same,residual activity,OXSR1 (human),97.9%
same,residual activity,CLK4 (human),97.8%
same,residual activity,DYRK1B (human),97.9%
same,residual activity,PIM1 (human),101%
same,residual activity,PLK3 (human),96.9%
same,residual activity,RPS6KA1 KD1 KD2 (human),92.7%
same,residual activity,CSNK1E (human),103%
same,residual activity,PAK6 (human),102%
same,residual activity,NUAK1 (human),96.7%
same,residual activity,ERBB2 (human),89.5%
same,residual activity,BRSK1 (human),98.4%
same,residual activity,TSSK1B (human),95.4%
same,residual activity,SYK (human),99.9%
same,residual activity,CDK3 CCNE1 (human),98.8%
same,residual activity,NEK2 (human),95.6%
same,residual activity,PRKCB2 (human),122%
same,residual activity,SGK2 (human),116%
same,residual activity,RPS6KB1 (human),109%
same,residual activity,FLT1 (human),98.4%
same,residual activity,PTK6 (human),94.5%
same,residual activity,RAF1 (human),105%
same,residual activity,CSNK1A1 (human),103%
same,residual activity,MAP4K5 (human),97.8%
same,residual activity,MST4 (human),94.7%
same,residual activity,TAOK3 (human),107%
COc1ccc(C(=O)Nc2sc3c(c2C(N)=O)CCCC3)cc1OC,residual activity,ITK (human),99.6%
same,residual activity,PRKCZ (human),89.3%
same,residual activity,DMPK (human),108%
same,residual activity,STK4 (human),104%
same,residual activity,CAMK2B (human),99.9%
same,residual activity,PDPK1 (human),87.8%
same,residual activity,RPS6KA4 KD2 (human),102%
same,residual activity,KDR (human),78.2%
same,residual activity,TXK (human),96.2%
same,residual activity,RPS6KA2 KD1 KD2 (human),112%
same,residual activity,STK33 (human),99.5%
same,residual activity,MAPK1 (human),91.2%
same,residual activity,MAP3K8 (human),106%
same,residual activity,GRK5 (human),104%
same,residual activity,MUSK (human),79.4%
same,residual activity,JAK2 JH1 JH2 (human),99.9%
same,residual activity,CAMK2A (human),100%
same,residual activity,OXSR1 (human),99.9%
same,residual activity,CLK4 (human),86.8%
same,residual activity,DYRK1B (human),104%
same,residual activity,PIM1 (human),98.9%
same,residual activity,PLK3 (human),95%
same,residual activity,RPS6KA1 KD1 KD2 (human),87%
same,residual activity,CSNK1E (human),94%
same,residual activity,PAK6 (human),85.7%
same,residual activity,NUAK1 (human),81.8%
same,residual activity,ERBB2 (human),93.3%
same,residual activity,BRSK1 (human),105%
same,residual activity,TSSK1B (human),115%
same,residual activity,SYK (human),91.2%
same,residual activity,CDK3 CCNE1 (human),104%
same,residual activity,NEK2 (human),95.4%
same,residual activity,PRKCB2 (human),93.5%
same,residual activity,SGK2 (human),100%
same,residual activity,RPS6KB1 (human),84.3%
same,residual activity,FLT1 (human),99.1%
same,residual activity,PTK6 (human),97.8%
same,residual activity,RAF1 (human),94.8%
same,residual activity,CSNK1A1 (human),108%
same,residual activity,MAP4K5 (human),94.3%
same,residual activity,MST4 (human),96.6%
same,residual activity,TAOK3 (human),100%
